# Measured values published in US20250129021A1, “SMALL MOLECULE PROTEIN SYNTHESIS MODULATORS” (Interdict Bio, Inc., priority 2023, published 2025).
# Columns and labels:
# MYC = test: In vitro transcription-translation (IVTT) assay, MYC reporter; assay type: biochemical; conditions: HeLa S3 lysate, 2 hrs at 30° C.
# From the text: (§1) All reporter constructs have been cloned into the pT7CFE1-CHis plasmid (ThermoFisher #88860) using Gibson assembly procedures (NEB #E2611L). The parental pT7CFE1-CHis plasmid contains an EMCV IRES at the 5′UTR for translation initiation, a multiple-cloning site (MCS) for gene insertion, an optional C-terminal His-epitope tag, and polyA sequence in the 3′UTR to regulate mRNA stability. All reporters are designed to be inserted at the MCS to include a red fluorescent protein (mCherry), P2A self-cleaving peptide which releases the preceding mCherry protein product, and a fusion open reading frame containing a 3×FLAG epitope, a peptide sequence of interest (TEST), and green fluorescent protein (sfGFP).
# (§2) Construct Plasmid Preparation: All plasmids are isolated from MACH1 cells (ThermoFisher) grown overnight in ampicillin-containing luria broth, and purified using ZymoPure Express Plasmid Midiprep Kit (Zymo Research). Constructs are sequenced verified and diluted to a working concentration of 110 ng/μL.
# (§3) HeLa S3 Lysate Preparation: HeLa S3 cell pellets are acquired from Ipracell/Ipratech (Belgium) and shipped as 4 mL frozen cell pellets on dry ice for storage at −80° C. until use. The procedure for lysate preparation is as follows. Prepare 1× Lysis Buffer, cold and stored on ice:
# (§4) Each preparation takes 8 cell pellets (4 ml packed volume each, approximately 1.0×10^9 cells per pellet). Thaw cell pellets from −80° C. on ice for 90 mins. Lay pellets horizontally on top of the ice and rotate every 30 mins to ensure even thawing. Once thawed, add 4 mL of cold lysis buffer to each pellet, and using a serological pipet, gently pipet up and down to break up clumps. Incubate resuspended cells in ice for an additional 30 mins (plunged into ice). During 30 min incubation, rinse and RNase-zap (Ambion) glass dounces (use loose pestle “A”), gently dry and place on ice until needed. Prepare RNase-free Eppendorf tubes for spinning and for batch storage. Add batch labels to 1.5-1.7 mL RNase-free microcentrifuge tubes (labeling scheme below). Each batch will have an extra 1.5-1.7 mL RNase-free microcentrifuge tube for 40 μL of lysate, label the top of this tube (labeling scheme below). After 30 min incubation, transfer all 8 mL of cell pellet to dounce. Cell lysis is complete after douncing 100 times. Aliquot cell lysis into 1.5-1.7 mL temporary-microcentrifuge tubes. Place tubes in centrifuge with “fins” out, and spin at 1,200×g for 5 mins. After the first spin use a 1 mL pipet to resuspend each tube and repeat spin. This acts as an additional lysis step, is more vigorous and increases lysate yield. During second spin get liquid N2 and a fresh conical tube on ice. After spin is complete, transfer supernatant (lysate) from microcentrifuge tubes into the 50 mL conical tube and keep on ice. Repeat steps 10-14 for all other cell pellets until completed. Once all cell lysate has been transferred to the 50 mL conical tube pipet to mix so the solution is homogenous. Transfer 1 mL of lysate into batch-labeled microcentrifuge tubes and flash freeze in liquid nitrogen. Be sure to pipet up and down to mix throughout transfer step. Place all tubes in the […] for long-term storage.
# (§5) In vitro transcription-translation assay setup: Each assay includes a master mix containing lysate and shared components, a 96-well plate containing compound titrations for testing, a 96-well DNA plate with reporter constructs to be tested, 96-well skirted PCR plates, and 96-well flat-bottom, black, fluorescent assay plates. […]
# CCND1 = test: In vitro transcription-translation (IVTT) assay, CCND1 reporter; assay type: biochemical; conditions: HeLa S3 lysate, 2 hrs at 30° C.
# From the text: as §1, §2, §3, §4, §5
# [1] = IVTT assay, MYC reporter, normalized sfGFP/mCherry ratio, half-log dilutions 30 μM-0.1 μM
SMILES,IC50 (MYC; [1]),also measured
"O=C(NCCc1cn[nH]c1)O[C@@H]1[C@@H](O)CN[C@@H]1Cc1ccc(-c2cncs2)cc1 [V193646, (2R,3S,4S)-4-hydroxy-2-(4-(thiazol-5-yl)benzyl)pyrrolidin-3-yl (2-(1H-pyrazol-4-yl)ethyl)carbamate]",< 10 µM,–
"O=C(NCCc1cnoc1)O[C@@H]1[C@@H](O)CN[C@@H]1Cc1ccc(-c2cncs2)cc1 [V193647, (2R,3S,4S)-4-hydroxy-2-(4-(thiazol-5-yl)benzyl)pyrrolidin-3-yl (2-(isoxazol-4-yl)ethyl)carbamate]",< 10 µM,–
"COc1ccc(C[C@H]2NC[C@H](O)[C@H]2OC(=O)NC[C@@H]2CNC[C@H]2O)cc1 [V188093, (2R,3S,4S)-4-hydroxy-2-[(4-methoxyphenyl)methyl]pyrrolidin-3-yl N-{[(3S,4S)-4-hydroxypyrrolidin-3-yl]methyl}carbamate]",–,IC50 (MYC; sfGFP/mCherry ratio): 20 to 30 µM; IC50 (CCND1; sfGFP/mCherry ratio): > 30 µM
"O=C(NCC[C@@H]1CCOC1)O[C@@H]1[C@@H](O)CN[C@@H]1Cc1ccc(-c2cncs2)cc1 [V193642, (2R,3S,4S)-4-hydroxy-2-(4-(thiazol-5-yl)benzyl)pyrrolidin-3-yl (2-((R)-tetrahydrofuran-3-yl)ethyl)carbamate]",< 10 µM,–
"O=C(NCC[C@H]1C[C@@H](O)C1)O[C@@H]1[C@@H](O)CN[C@@H]1Cc1ccc(-c2cncs2)cc1 [V193644, (2R,3S,4S)-4-hydroxy-2-(4-(thiazol-5-yl)benzyl)pyrrolidin-3-yl (2-((1s,3S)-3-hydroxycyclobutyl)ethyl)carbamate]",< 10 µM,–
"CC(C)CCNC(=O)O[C@@H]1[C@@H](O)CN[C@@H]1Cc1ccc(-c2cncs2)cc1 [V193648, (2R,3S,4S)-4-hydroxy-2-(4-(thiazol-5-yl)benzyl)pyrrolidin-3-yl isopentylcarbamate]",< 10 µM,–
"O=C(NCC[C@H]1CCOC1)O[C@@H]1[C@@H](O)CN[C@@H]1Cc1ccc(-c2cncs2)cc1 [V193643, (2R,3S,4S)-4-hydroxy-2-(4-(thiazol-5-yl)benzyl)pyrrolidin-3-yl (2-((S)-tetrahydrofuran-3-yl)ethyl)carbamate]",< 10 µM,–
"COc1ccc(C[C@H]2NC[C@H](O)[C@H]2OC(=O)N[C@H](C)c2ccccc2)cc1 [V191970, (2R,3S,4S)-4-hydroxy-2-[(4-methoxyphenyl)methyl]pyrrolidin-3-yl N-[(1R)-1-phenylethyl]carbamate]",> 30 µM,IC50 (CCND1; IVTT): > 30 µM
"COc1ccc(C[C@H]2NC[C@H](O)[C@H]2OC(=O)NC[C@@H]2CCN(C)C2)cc1 [V188109, (2R,3S,4S)-4-hydroxy-2-[(4-methoxyphenyl)methyl]pyrrolidin-3-yl N-{[(3S)-1-methylpyrrolidin-3-yl]methyl}carbamate]",–,IC50 (MYC; sfGFP/mCherry ratio): 10 to 20 µM; IC50 (CCND1; sfGFP/mCherry ratio): > 30 µM
"O=C(NCC[C@H]1CCCO1)O[C@@H]1[C@@H](O)CN[C@@H]1Cc1ccc(-c2cncs2)cc1 [V193641, (2R,3S,4S)-4-hydroxy-2-(4-(thiazol-5-yl)benzyl)pyrrolidin-3-yl (2-((R)-tetrahydrofuran-2-yl)ethyl)carbamate]",< 10 µM,–
"COc1ccc(C[C@H]2NC[C@H](O)[C@H]2OC(=O)NCCn2cnc3ccccc32)cc1 [V188090, (2R,3S,4S)-4-hydroxy-2-[(4-methoxyphenyl)methyl]pyrrolidin-3-yl N-[2-(1,3-benzodiazol-1-yl)ethyl]carbamate]",–,IC50 (MYC; sfGFP/mCherry ratio): > 30 µM; IC50 (CCND1; sfGFP/mCherry ratio): > 30 µM
"O=C(NCC[C@H]1C[C@H](O)C1)O[C@@H]1[C@@H](O)CN[C@@H]1Cc1ccc(-c2cncs2)cc1 [V193645, (2R,3S,4S)-4-hydroxy-2-(4-(thiazol-5-yl)benzyl)pyrrolidin-3-yl (2-((1r,3R)-3-hydroxycyclobutyl)ethyl)carbamate]",< 10 µM,–
"CNC(=O)O[C@@H]1[C@@H](O)CN[C@@H]1Cc1ccc(-c2cn(-c3cc4ccc(O)cc4oc3=O)nn2)cc1 [V193432, (2R,3S,4S)-4-hydroxy-2-(4-(1-(7-hydroxy-2-oxo-2H-chromen-3-yl)-1H-1,2,3-triazol-4-yl)benzyl)pyrrolidin-3-yl methylcarbamate]",< 10 µM,–
